Reference: the supplement of paper PMC9701192
± gives the uncertainty stated by the source.

Assays:
Assay in all cases: mass response relative to vehicle control (EMD distance of treated vs reference mass distribution minus control baseline) (% of mean reference cell mass); higher = larger drug-induced change in single-cell mass distribution (stronger response)
MOLM-13 = test system: MOLM-13
Method: (§1)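 Cancer cell lines were treated in vitro with drugs at the listed doses (about 24 h; 0.25% DMSO vehicle). Single-cell buoyant mass was measured on suspended microchannel resonator instruments with CNN image curation, 2500 cells per condition. Mass response is the Earth Mover's Distance to vehicle-treated reference cells as % of mean reference mass.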

MM1S ATCC = test system: MM1S ATCC
Method: as §1

PC9 = test system: PC9
Method: as §1

MDA-MB-361 = test system: MDA-MB-361
Method: as §1

CC(C)(C)c1cc(NC(=O)Nc2ccc(-c3cn4c(n3)sc3cc(OCCN5CCOCC5)ccc34)cc2)no1 [Quizartinib] was tested, and the mass response (MOLM-13; 0.0001 µM) was 1.17 ± 1.9, the mass response (MOLM-13; 0.001 µM) was 16.3 ± 0.82 and the mass response (MOLM-13; 0.01 µM) was 27 ± 0.32. For the same molecule, the mass response (MOLM-13; 0.1 µM) was 25.8 ± 0.77.
Molecule CCc1nc(C(N)=O)c(Nc2ccc(N3CCC(N4CCN(C)CC4)CC3)c(OC)c2)nc1NC1CCOCC1 [Gilteritinib] has a mass response (MOLM-13; 0.002 µM) of -3.18 ± 4.6, a mass response (MOLM-13; 0.02 µM) of 13.3 ± 3.4 and a mass response (MOLM-13; 0.2 µM) of 35 ± 2.9. It also gave a mass response (MOLM-13; 2 µM) of 33.9 ± 5.4.
N[C@@H](Cc1ccc(N(CCCl)CCCl)cc1)C(=O)O [Melphalan] was tested, and the mass response (MM1S ATCC; 0.1 µM) was 9.64 ± 4.4, the mass response (MM1S ATCC; 1 µM) was 17.5 ± 4.6 and the mass response (MM1S ATCC; 10 µM) was 12.9 ± 2.5. The mass response (MM1S ATCC; 50 µM) was 29.6 ± 1.6.
CC(=O)[C@]1(O)Cc2c(O)c3c(c(O)c2[C@@H](O[C@H]2C[C@H](N)[C@H](O)[C@H](C)O2)C1)C(=O)c1ccccc1C3=O [Idarubicin] was tested, and the mass response (MOLM-13; 0.001 µM) was -0.127 ± 1.4, the mass response (MOLM-13; 0.01 µM) was 19.1 ± 2.9 and the mass response (MOLM-13; 0.1 µM) was 33.1 ± 2. It also gave a mass response (MOLM-13; 1 µM) of 36.6 ± 2.1.
COc1cc2ncnc(Nc3ccc(F)c(Cl)c3)c2cc1NC(=O)/C=C/CN1CCCCC1 [Dacomitinib] showed a mass response (PC9; 0.5 µM) of 14.47 ± 0.087, a mass response (PC9; 5 µM) of 25.2 ± 0.96 and a mass response (PC9; 20 µM) of 55.6 ± 1.2. The mass response (PC9; 50 µM) was 62.57 ± 0.055.
CC(=O)O[C@@]12CO[C@@H]1C[C@H](O)[C@@]1(C)C(=O)[C@H](O)C3=C(C)[C@@H](OC(=O)[C@H](O)[C@@H](NC(=O)OC(C)(C)C)c4ccccc4)C[C@@](O)([C@@H](OC(=O)c4ccccc4)[C@H]21)C3(C)C [Docetaxel] gave a mass response (PC9; 0.001 µM) of 0.63 ± 3.4, a mass response (PC9; 0.0025 µM) of 5.56 ± 2.2 and a mass response (PC9; 0.005 µM) of 12.4 ± 1.8. The mass response (PC9; 0.01 µM) was 25.2 ± 4.1.
C/C(=C\c1csc(C)n1)[C@@H]1C[C@@H]2O[C@]2(C)CCC[C@H](C)[C@H](O)[C@@H](C)C(=O)C(C)(C)[C@@H](O)CC(=O)N1 [Ixabepilone] was tested, and the mass response (PC9; 0.01 µM) was 19.5 ± 1.5, the mass response (PC9; 0.1 µM) was 37.6 ± 4.5 and the mass response (PC9; 1 µM) was 36.7 ± 4.5. For the same molecule, the mass response (PC9; 10 µM) was 36.8 ± 5.7.
Work on C#Cc1cccc(Nc2ncnc3cc(OCCOC)c(OCCOC)cc23)c1 [Erlotinib] yielded a mass response (PC9; 0.01 µM) of 0.55 ± 1.1, a mass response (PC9; 0.1 µM) of 15.4 ± 1.5 and a mass response (PC9; 1 µM) of 17.2 ± 0.41. The mass response (PC9; 10 µM) was 24.6 ± 1.6.
With Nc1ncn([C@@H]2O[C@H](CO)[C@@H](O)[C@H]2O)c(=O)n1 [5-Azacytidine] the mass response (MOLM-13; 0.1 µM) was 1.27 ± 0.26, the mass response (MOLM-13; 1 µM) was 10.1 ± 1.9 and the mass response (MOLM-13; 10 µM) was 35.2 ± 2.8. The mass response (MOLM-13; 0.0001 M) was 36.45 ± 0.22.
In the case of COc1cccc2c1C(=O)c1c(O)c3c(c(O)c1C2=O)C[C@@](O)(C(=O)CO)C[C@@H]3O[C@H]1C[C@H](N)[C@@H](O)[C@H](C)O1 [Epirubicin], the mass response (MDA-MB-361; 0.15 µM) is reported as 10.2 ± 1.1, the mass response (MDA-MB-361; 0.625 µM) is reported as 10.7 ± 0.92 and the mass response (MDA-MB-361; 2.5 µM) is reported as 8.33 ± 2.5. For the same molecule, the mass response (MDA-MB-361; 10 µM) was 13.1 ± 3.1.
Molecule N.N.[Cl][Pt][Cl] [Cisplatin] has a mass response (MDA-MB-361; 10 µM) of 3.9 ± 9.3, a mass response (MDA-MB-361; 20 µM) of 2.2 ± 2.3 and a mass response (MDA-MB-361; 50 µM) of 4.96 ± 1.6. The mass response (MDA-MB-361; 0.0001 M) was 19.4 ± 2.7.
Cc1nc(NC(=O)N2CCC[C@H]2C(N)=O)sc1-c1ccnc(C(C)(C)C(F)(F)F)c1 [Alpelisib] was tested, and the mass response (MDA-MB-361; 0.05 µM) was 7.91 ± 1.6, the mass response (MDA-MB-361; 0.5 µM) was 16.4 ± 0.24 and the mass response (MDA-MB-361; 5 µM) was 39.9 ± 5.9. The mass response (MDA-MB-361; 50 µM) was 62.6 ± 1.8.
With COc1cc(N2CCC(N3CCN(C)CC3)CC2)ccc1Nc1ncc(Cl)c(Nc2ccccc2P(C)(C)=O)n1 [Brigatinib] the mass response (PC9; 0.1 µM) was 1.59 ± 3.9, the mass response (PC9; 0.5 µM) was 22.4 ± 1.5 and the mass response (PC9; 1 µM) was 33.6 ± 2.4. It also gave a mass response (PC9; 10 µM) of 51.3 ± 5.4.
For COc1cccc2c1C(=O)c1c(O)c3c(c(O)c1C2=O)C[C@@](O)(C(C)=O)C[C@@H]3O[C@H]1C[C@H](N)[C@H](O)[C@H](C)O1 [Daunorubicin], the mass response (MOLM-13; 0.01 µM) was 3.77 ± 1.2, the mass response (MOLM-13; 0.1 µM) was 22.3 ± 2.7 and the mass response (MOLM-13; 1 µM) was 31.1 ± 1.9. The mass response (MOLM-13; 10 µM) was 45.8 ± 2.6.
With Cn1ncnc1[C@H]1c2n[nH]c(=O)c3cc(F)cc(c23)N[C@@H]1c1ccc(F)cc1 [Talazoparib] the mass response (MDA-MB-361; 0.2 µM) was 8.83 ± 4.3, the mass response (MDA-MB-361; 2 µM) was 8.66 ± 2.9 and the mass response (MDA-MB-361; 20 µM) was 11.8 ± 3.6. The mass response (MDA-MB-361; 50 µM) was 13.1 ± 6.4.
With Nc1cccc2c1CN(C1CCC(=O)NC1=O)C2=O (configuration not stated) [Lenalidomide] the mass response (MM1S ATCC; 0.1 µM) was 1.82 ± 5.2, the mass response (MM1S ATCC; 1 µM) was 4.81 ± 3.5 and the mass response (MM1S ATCC; 10 µM) was 4.13 ± 1.8. It also gave a mass response (MM1S ATCC; 0.0001 M) of 14.4 ± 1.9.
O=C(O)C1(C(=O)O)CCC1.[NH2-].[NH2-].[Pt+2] [Carboplatin] gave a mass response (PC9; 0.1 µM) of -0.849 ± 1.3, a mass response (PC9; 1 µM) of 1.45 ± 5.4 and a mass response (PC9; 10 µM) of 11.1 ± 3.2. The mass response (PC9; 0.0001 M) was 25.9 ± 5.4.
CNC(=O)c1cc(Oc2ccc(NC(=O)Nc3ccc(Cl)c(C(F)(F)F)c3)cc2)ccn1 [Sorafenib] gave a mass response (MOLM-13; 0.0005 µM) of -1.17 ± 0.94, a mass response (MOLM-13; 0.005 µM) of 10.6 ± 1 and a mass response (MOLM-13; 0.05 µM) of 32 ± 0.86. For the same molecule, the mass response (MOLM-13; 0.5 µM) was 35.2 ± 0.46.
